By ED50 is commonly meant the midpoint of the dose-response relation. Low readings indicate an effect at a small dose, high ones a need for a large dose.

This experiment deals with cholesterol biosynthesis in rats. Nature of the experiment: In vivo effect on cholesterol biosynthesis in rats (14C-Acetate Model; plasma 14C-nonsaponifiable lipid). Also noted: species or system Male Sprague/Dawley rats. The note with it: dose suppressing cholesterol synthesis in vivo by 50 percent. The procedure: SQ 34,346 in oral or IV dosage form was tested in vivo for its effect on cholesterol biosynthesis in rats (^14C-Acetate Model).
The following in vivo tests employed a rat model system to determine the in vivo cholesterol synthesis inhibitory activity of compounds which show cholesterol synthesis inhibition in whole cell systems (freshly isolated rat hepatocytes and cultured human skin fibroblasts), and which are potent inhibitors of HMG CoA reductase.
The method used for iv and po drug testing were adapted from a procedure originally described by Sandoz (U.S. Patent No. 4,613,610, Sept. 23, 1986, and Int'I Publication No. WO 86/00367, Derwent Nos. 86271640 and 8628274). […]
For iv testing, the salt forms of test compounds were routinely dissolved in saline and injected iv into the tail vein 5 minutes before ^14C-acetate injection. […] Cholesterol synthesis was measured by determining the level of ^14C-nonsaponifiable lipid present in one mL of plasma; the method used is a modification of the method described by Dugan, et al, (Dugan, R.E., L.L. Slakey, A.V. Briedis, and J. Porter, Arch. Biochem. Biophys., 152:21 (1972)). […] Samples were counted for both ^3H and ^14C in 10 mL Optiflour scintillation fluid using a Beckman LS3801 counter programed for double label counting. […]

Regarding “(S)-4-[[[4-(4-Fluorophenyl)-1,2-bis(1-methylethyl)-5-phenyl-1H-pyrrol-3-yl]-ethynyl]hydroxyphosphinyl]-3-hydroxybutanoic acid, dilithium salt [SQ 34,346]”, the ED50 by setting is: (i.v., injected into tail vein 5 minutes before 14C-acetate) 0.05 mg/kg; (p.o., given 30 minutes before 14C-acetate) 1.13 mg/kg.

The values are drawn from patent EP0463456A1, “Phosphorus-containing HMG-CoA reductase inhibitors, new intermediates and their use” (E.R. SQUIBB & SONS, INC., priority 1990, dated 1992).
